For 13 compounds, IC50 results are on record in patent publication US20250326753A1, “DUAL CXCR4-BTK INHIBITORS” (X4 Pharmaceuticals, Inc., priority 2022, published 2025).

pIC50: −log10 of the molar value.

A word on the pIC50: it is −log10 of the IC50, conventionally taken in molar units.

For experiment [1], the target named is T1, CXCR4 (Homo sapiens, UniProt P61073). Description: Intracellular CXCL-12-induced calcium mobilization assay (FLIPR), U87.CXCR4 cells. The format is cell-based. Set-up: expressed in transfected cells; host or cells: U87 (U87.CXCR4). To be noted: CXCL-12 25-50 ng/ml, read-out: IC50 CXCL-12 Ca2+ flux U87.CXCR4+. As to the method: Intracellular calcium mobilization induced by chemokines or chemokine-derived peptides were evaluated using a calcium responsive fluorescent probe and a FLIPR system. The CXCR-4 transfected U87 cell line (U87.CXCR4) cells were seeded in gelatine-coated black-wall 96-well plates at 20,000 cells per well and incubated for 12 hours. Cells were then loaded with the fluorescent calcium probe Fluo-2 acetoxymethyl at 4 μM final concentration in assay buffer (Hanks' balanced salt solution with 20 mM HEPES buffer and 0.2% bovine serum albumin, pH 7.4) for 45 min at 37° C. The intracellular calcium mobilization induced by the CXCL-12 (25-50 ng/ml) was then measured at 37° C. by monitoring the fluorescence as a function of time in all the wells simultaneously using a fluorometric imaging plate reader (FLIPR Tetra, Molecular Devices).
Background: Calcium flux is commonly read through the fluorescence of an indicator in the cells.

Experiment [2] addresses T2, BTK (Bruton tyrosine kinase) (Homo sapiens, UniProt Q06187).
T2 construct: GST or His (the text leaves open which); purchased Reaction Biology Europe GmbH Lot 012,11; host or cells: Sf9 insect cells or E. coli (not resolved)
Description: BTK screening assay (33PanQinase Activity Assay, radiometric). To be noted: Inhibition of BTK, radiometric 33PanQinase Activity Assay, 3 μM ATP, 10 concentrations in singlicate, top 10 μM; read-out: 33PanQinase ® Radiometric IC50. It is filed as biochemical. As for the experimental part: Inhibition of BTK activity was evaluated using a radiometric protein kinase assay (33PanQinase® Activity Assay) to measure the activity of BTK (Bruton tyrosine kinase).
Kinase assays were performed in 96-well ScintiPlates™ from Perkin Elmer (Boston, MA, USA) in a 50 μL reaction volume. The reaction cocktail was pipetted in four steps in the following order: 10 μL of non-radioactive ATP solution (in H2O); 25 μL of assay buffer/[γ-^33P]-ATP mixture; 5 μL of compound test sample in 10% DMSO; 10 μL of enzyme/substrate mixture.
BTK kinase was expressed in Sf9 insect cells or in E. coli as recombinant GST-fusion proteins or His-tagged proteins, either as full-length or enzymatically active fragments from human cDNAs, and purified by either GSH-affinity chromatography or immobilized metal. Purity was examined by SDS-PAGE/Coomassie staining, and identity confirmed by mass spectroscopy.
The reaction cocktails were incubated at 30° C. for 60 minutes. The reaction was stopped with 50 μL of 2% (v/v) H3PO4, plates were aspirated and washed two times with 200 μL 0.9% (w/v) NaCl. Incorporation of ^33Pi (counting of “cpm”) was determined with a microplate scintillation counter (Microbeta, Wallac).
The median value of the counts in wells containing assay buffer without enzyme, and without test compound was defined as “low control.” This value reflects unspecific binding of radioactivity to the plate in the absence of a protein kinase but in the presence of the substrate. The median value of the counts in wells containing assay buffer without test compound was defined as the “high control,” i.e. full activity in the absence of any inhibitor. The difference between high and low control was taken as 100% activity. Residual activity (in %) was calculated using the following formula: Res. Activity (%)=100×[(cpm of compound-low control)/(high control-low control)].
The fitting method used was a least-squares fit.

The target in experiment [3] is T1, CXCR4. Description: Chemokine (CXCL12-AF647) binding inhibition assay, Jurkat cells expressing CXCR4. To be noted: CXCL12-AF647 25 ng/ml, read-out: IC50 CXCL-12 binding Jurkat. As to the method: Jurkat cells expressing CXCR4 were washed once with assay buffer (Hanks' balanced salt solution with 20 mM HEPES buffer and 0.2% bovine serum albumin, pH 7.4) and then incubated for 15 min at room temperature with the test compounds diluted in assay buffer at dose-dependent concentrations. Subsequently, CXCL12-AF647 (25 ng/ml) was added to the compound-incubated cells. The cells were incubated for 30 min at room temperature. Thereafter, the cells were washed twice in assay buffer, fixed in 1% paraformaldehyde in PBS, and analyzed on the FL4 channel of a FACSCalibur flow cytometer equipped with a 635-nm red diode laser (Becton Dickinson, San Jose, CA, USA).
The percentages of inhibition of CXCL12-AF647 binding were calculated according to the formula: [1−((MFI−MFINC)/(MFIPC−MFINC))]×100 where MFI is the mean fluorescence intensity of the cells incubated with CXCL 12-AF647 in the presence of the inhibitor, MFINC is the mean fluorescence intensity measured in the negative control (i.e., autofluorescence of unlabeled cells), and MFIPC is the mean fluorescence intensity of the positive control (i.e., cells exposed to CXCL12-AF647 alone).

T1 sequence (P61073 whole entry): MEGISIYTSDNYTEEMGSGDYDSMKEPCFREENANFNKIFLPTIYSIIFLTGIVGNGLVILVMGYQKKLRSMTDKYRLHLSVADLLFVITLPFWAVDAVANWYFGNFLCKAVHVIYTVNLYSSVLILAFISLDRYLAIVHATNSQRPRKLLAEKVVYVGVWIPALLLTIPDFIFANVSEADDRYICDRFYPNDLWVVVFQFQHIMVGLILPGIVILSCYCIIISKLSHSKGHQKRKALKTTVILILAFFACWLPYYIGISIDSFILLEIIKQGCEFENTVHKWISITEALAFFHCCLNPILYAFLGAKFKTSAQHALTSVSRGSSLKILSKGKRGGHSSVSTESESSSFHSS
T2 sequence (Q06187 whole entry): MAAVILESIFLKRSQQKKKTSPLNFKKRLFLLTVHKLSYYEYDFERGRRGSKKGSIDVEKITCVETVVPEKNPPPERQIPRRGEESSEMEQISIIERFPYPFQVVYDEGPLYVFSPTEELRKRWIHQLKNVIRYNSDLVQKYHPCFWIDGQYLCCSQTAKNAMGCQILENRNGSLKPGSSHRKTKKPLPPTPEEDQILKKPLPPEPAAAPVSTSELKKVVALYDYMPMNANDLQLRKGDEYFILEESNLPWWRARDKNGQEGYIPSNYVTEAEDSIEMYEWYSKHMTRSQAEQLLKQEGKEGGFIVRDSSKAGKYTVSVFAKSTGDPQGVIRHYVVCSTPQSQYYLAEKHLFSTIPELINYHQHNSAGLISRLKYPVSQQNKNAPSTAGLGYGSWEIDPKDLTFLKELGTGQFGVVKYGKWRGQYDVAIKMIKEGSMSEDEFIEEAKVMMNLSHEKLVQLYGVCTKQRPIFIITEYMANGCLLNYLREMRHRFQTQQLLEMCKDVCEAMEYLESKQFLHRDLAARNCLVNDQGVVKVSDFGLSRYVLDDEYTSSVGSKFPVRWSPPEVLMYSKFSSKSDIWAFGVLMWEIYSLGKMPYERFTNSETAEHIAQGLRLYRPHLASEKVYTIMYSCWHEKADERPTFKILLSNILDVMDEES

Turning to `Cc1cccnc1[C@H]1CCC[C@@H](c2ncccc2C)N1CCCNC(=O)[C@@H]1CC[C@@H](Nc2ncnc3[nH]cc(C(=O)c4ccc(Oc5ccccc5)cc4Cl)c23)CO1` [Compound I-20], the negative logarithm of the IC50 (pIC50) in experiment [1] was less than 5.60; in experiment [2] it was 7.00 to 9.00; in experiment [3], 6.00 to 7.00.

Regarding `Cc1cccnc1[C@H]1CC(COC(=O)[C@@H]2CC[C@@H](Nc3ncnc4[nH]cc(C(=O)c5ccc(Oc6ccccc6)cc5Cl)c34)CO2)C[C@@H](c2ncccc2C)N1CCCCN` (some centres unmarked) [Compound I-21], the pIC50 in experiment [1] was 6.00 to 7.00; in experiment [2], 7.00 to 9.00; in experiment [3], 7.00 to 9.00.

For `Cc1cccnc1[C@H]1CC(C(=O)OC[C@@H]2CC[C@@H](Nc3ncnc4[nH]cc(C(=O)c5ccc(Oc6ccccc6)cc5Cl)c34)CO2)C[C@@H](c2ncccc2C)N1CCCCN` (some centres unmarked) [Compound I-22], the negative logarithm of the IC50 (pIC50) is 6.00 to 7.00 in experiment [1], 7.00 to 9.00 in experiment [2] and 7.00 to 9.00 in experiment [3].

For the compound `Cc1cc(-c2ncnc3[nH]c(S(=O)(=O)NCCN4[C@@H](c5ncccc5C)CCC[C@H]4c4ncccc4C)cc23)ccc1CNC(=O)c1ccc(C(C)(C)C)cc1` [Compound I-26], the negative-log IC50 (pIC50) in experiment [1] was less than 5.60; in experiment [2] it was 5.60 to 6.00; in experiment [3], less than 5.60.

On to `Cc1cc(-c2ncnc3[nH]c(S(=O)(=O)NCCCN4[C@@H](c5ncccc5C)CCC[C@H]4c4ncccc4C)cc23)ccc1CNC(=O)c1ccc(C(C)(C)C)cc1` [Compound I-27], for which the pIC50 is less than 5.60 in experiment [1], 6.00 to 7.00 in experiment [2] and 6.00 to 7.00 in experiment [3].

As for `Cc1cc(-c2ncnc3[nH]c(S(=O)(=O)NCCCCN4[C@@H](c5ncccc5C)CCC[C@H]4c4ncccc4C)cc23)ccc1CNC(=O)c1ccc(C(C)(C)C)cc1` [Compound I-28], the results for the negative logarithm of the IC50 (pIC50) in experiment [1], in experiment [2] and in experiment [3] were less than 5.60, 5.60 to 6.00 and 6.00 to 7.00, respectively.

`Cc1cc(-c2ccnc(Nc3cnn(CCCCN4[C@@H](c5ncccc5C)CCC[C@H]4c4ncccc4C)c3)n2)ccc1CNC(=O)N1CC(OC(C)C)C1` [Compound I-29]: the values for the pIC50 in experiment [1] and in experiment [2] were less than 5.60 and 7.00 to 9.00, respectively.

On to `Cc1cccnc1[C@H]1CCC[C@@H](c2ncccc2C)N1CCCN1CCN(C(=O)c2ccc(-c3cc4c(-c5cccc(NC(=O)c6ccccc6)c5C)ncnc4[nH]3)cc2)CC1` [Compound I-30], for which the pIC50 in experiment [1] is 7.00 to 9.00; in experiment [2], 6.00 to 7.00; in experiment [3], 7.00 to 9.00.

For the compound `Cc1cccnc1[C@H]1CCC[C@@H](c2ncccc2C)N1CCCCN1CCN(C(=O)c2ccc(-c3cc4c(-c5cccc(NC(=O)c6ccccc6)c5C)ncnc4[nH]3)cc2)CC1` [Compound I-31], the negative logarithm of the IC50 (pIC50) was 7.00 to 9.00 in experiment [1], 6.00 to 7.00 in experiment [2] and 7.00 to 9.00 in experiment [3].

For `Cc1cccnc1[C@H]1CCC[C@@H](c2ncccc2C)N1CCN1CCN(C(=O)c2ccc(-c3cc4c(-c5cccc(NC(=O)c6ccc(C(C)C)cc6)c5C)ncnc4[nH]3)cc2)CC1` [Compound I-32], the results for the pIC50 in experiment [1], in experiment [2] and in experiment [3] were less than 5.60, 7.00 to 9.00 and 7.00 to 9.00, respectively.

For `Cc1cccnc1[C@H]1CCC[C@@H](c2ncccc2C)N1CCN1CCN(C(=O)c2ccc(-c3cc4c(-c5cccc(NC(=O)c6cccc(C(C)C)c6)c5C)ncnc4[nH]3)cc2)CC1` [Compound I-33], the negative-log IC50 (pIC50) is 6.00 to 7.00 in experiment [1], 6.00 to 7.00 in experiment [2] and 7.00 to 9.00 in experiment [3].

Regarding `Cc1cccnc1[C@H]1CCC[C@@H](c2ncccc2C)N1CCN1CCN(C(=O)c2ccc(-c3cc4c(-c5cccc(NC(=O)c6ccc(C(F)(F)F)cc6)c5C)ncnc4[nH]3)cc2)CC1` [Compound I-34], the figures for the negative-log IC50 (pIC50) in experiment [1], in experiment [2] and in experiment [3] were 6.00 to 7.00, 6.00 to 7.00 and 7.00 to 9.00, respectively.

`Cc1cccnc1[C@H]1CCC[C@@H](c2ncccc2C)N1CCNC1CN(C(=O)c2ccc(-c3cc4c(-c5cccc(NC(=O)c6ccc(C(C)C)cc6)c5C)ncnc4[nH]3)cc2)C1` [Compound I-35]: the pIC50 in experiment [1], in experiment [2] and in experiment [3] was 7.00 to 9.00 each time.
